Measured values reported in BindingDB's records for doi:10.1021/jm00060a014 (Upjohn Laboratories, 1993).

Test: Binding affinity against [3H]8-OH-DPAT-labeled 5-hydroxytryptamine 1A receptor sites in bovine hippocampus

Row | SMILES | Ki
1 | CCCN1CCC2c3c(cccc3OC)CCC21 (stereo not drawn) [9-Methoxy-3-propyl-2,3,3a,4,5,9b-hexahydro-1H-benzo[e]indole] | 0.0044 µM
2 | CCCN1CCC2c3c(cccc3OC)CC[C@@H]21 (stereo partly drawn) [9-Methoxy-3-propyl-2,3,3a,4,5,9b-hexahydro-1H-benzo[e]indole] | 0.186 µM
3 | COc1cccc2c1CC[C@@H]1[C@H]2CCN1CC1CC1 [(3aR,9bS)-3-Cyclopropylmethyl-6-methoxy-2,3,3a,4,5,9b-hexahydro-1H-benzo[e]indole] | > 1 µM
